In PubChem BioAssay AID434987 (Southern Research Specialized Biocontainment Screening …, 2010) one finds IC50 and IC90 data, which are given here for 44 molecules.

Calls of active or inactive are those of the source. No rule for the calls is given here.

One may read the IC50 as the point on the concentration scale where inhibition reaches its midpoint. In general, IC90 refers to the concentration needed for an effect of 90%.

The assay deals with M. tuberculosis H37Rv growth inhibition with meropenem. The experiment in a line: dose response, H37Rv, with and without meropenem (AID 434987).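 Also: growth over 7 days at 37 °C before Alamar Blue read on day 9.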
[1] abbreviates: M. tuberculosis H37Rv growth inhibition, measured here: IC50 without meropenem.
Where [2] appears, read: M. tuberculosis H37Rv growth inhibition, measured here: IC90 without meropenem.
[3] abbreviates: measured here: IC90 with meropenem.

As for `Cc1cc(=S)nc(-c2ccccn2)[nH]1`, the half-inhibitory concentration (IC50) was 13.1 µM. This molecule also registered an IC50 under setting [1] of 48.3 µM. Moreover, the IC90 under setting [2] turned out to be 50.4 µM. This molecule yielded a 90% effect concentration (IC90) under setting [3] of 19.7 µM.
The corresponding values for `Cc1ccc(N=Cc2c(O)ccc3ccccc23)cc1F` are > 100 µM (inactive), over 100 µM, over 100 µM and over 100 µM.
The corresponding values for `COc1ccc(Br)cc1/C=N/NC(=O)CNC(=O)/C=C/c1ccccc1` are > 100 µM (inactive), over 100 µM, over 100 µM and over 100 µM.
For `CS(=O)(=O)N(Cc1ccc(Cl)cc1)c1ccc(C(=O)NCCC2=CCCCC2)cc1`, the IC50 is > 100 µM (inactive). The same molecule yielded an IC50 under setting [1] of over 100 µM. Moreover, the IC90 under setting [2] is over 100 µM. Besides, the IC90 under setting [3] was over 100 µM.
Take `CCN(CC(=O)Nc1ccc2c(c1)OCCO2)C(=O)c1ccc([N+](=O)[O-])s1`: the IC50 is 23.6 µM (inactive). The molecule also returned an IC50 under setting [1] of 26.7 µM. This molecule registered an IC90 under setting [2] of 50.7 µM. Also, under setting [3], the IC90 was determined as 26 µM.
Consider `CCc1cc2c(=O)oc(-c3ccccc3F)nc2s1`, for which the IC50 is > 100 µM (inactive). Under setting [1], this molecule registered an IC50 of over 100 µM. The same molecule returned an IC90 under setting [2] of over 100 µM. The IC90 under setting [3] was over 100 µM.
Turning to `CC1(C)CC(=O)c2cc(C(=O)NCc3ccco3)c(=O)n(-c3ccccc3)c2C1`, the IC50 was > 100 µM (inactive). In addition, the IC50 under setting [1] was over 100 µM. Under setting [2], this molecule registered an IC90 of over 100 µM. The molecule also displayed an IC90 under setting [3] of over 100 µM.
As for `O=C(N/N=C/c1ccc([N+](=O)[O-])o1)c1ccccc1-n1cccc1`, the IC50 was 4.74 µM. Moreover, under setting [1], the IC50 amounted to 13.9 µM. Moreover, the 90% effect concentration (IC90) under setting [2] was found to be 35 µM. This molecule yielded a concentration for an effect of 90% (IC90) under setting [3] of 29.4 µM.
In the case of `S=C(Nc1ccccc1Cl)N1CCCC(c2ccccc2)=N1`, the IC50 is > 100 µM (inactive). This molecule also came in with an IC50 under setting [1] of 68.9 µM. Besides, the 90% effect concentration (IC90) under setting [2] was found to be 87.8 µM. The molecule also had a 90% effect concentration (IC90) under setting [3] of over 100 µM.
In the same order, the values of `CN1C(=O)/C(=C/c2ccc(C(=O)NC3CCCC3)cc2)Oc2ccccc21` are > 100 µM (inactive), over 100 µM, over 100 µM and over 100 µM.
With `Cc1cccc2nc(COc3ccc4ccccc4c3Br)cn12`, the IC50 was 49 µM (inactive). The IC50 under setting [1] came out at 47.5 µM. Also, the IC90 under setting [2] was over 100 µM. This molecule also showed an IC90 under setting [3] of over 100 µM.
For `O=C1N=C(N2CCCC2)S/C1=C\c1cccc(Br)c1`, the IC50 was 30.9 µM (inactive). In addition, the half-inhibitory concentration (IC50) under setting [1] was 55 µM. Besides, the IC90 under setting [2] was over 100 µM. The molecule also gave an IC90 under setting [3] of over 100 µM.
With `CCOC(=O)c1nn(-c2ccccc2)c(C#N)c1NC(=O)c1nn(CC)cc1Br`, the IC50 is > 100 µM (inactive). The molecule also came in with an IC50 under setting [1] of over 100 µM. Also, the 90% effect concentration (IC90) under setting [2] is over 100 µM. The IC90 under setting [3] is over 100 µM.
Turning to `CCOC(=O)c1c(C)nc2sc(C(=O)Nc3ccccc3)c(N)c2c1-c1ccc(OC)cc1`, the IC50 is > 100 µM (inactive). Under setting [1], this molecule returned a half-inhibitory concentration (IC50) of over 100 µM. In addition, under setting [2], the IC90 was over 100 µM. Besides, the IC90 under setting [3] is over 100 µM.
For the molecule `Cc1sc2nc(C(C)Nc3ccccc3N3CCOCC3)[nH]c(=O)c2c1C` (stereo unspecified), the IC50 is > 100 µM (inactive). Under setting [1], this molecule had an IC50 of over 100 µM. In addition, the IC90 under setting [2] is over 100 µM. This molecule also came in with an IC90 under setting [3] of over 100 µM.
`COc1ccc(OC)c(-c2cc(C(=O)Nc3c(C)nn(Cc4ccccc4C)c3C)no2)c1`: the IC50 is > 100 µM (inactive). Besides, under setting [1], the IC50 is over 100 µM. Under setting [2], this molecule yielded an IC90 of over 100 µM. The IC90 under setting [3] is over 100 µM.
In the case of `Cc1cc(C(=O)CN2C(=O)NC(C)(CC(C)C)C2=O)c(C)n1-c1ccc2c(c1)OCO2` (stereo unspecified), the IC50 was 70 µM (inactive). The IC50 under setting [1] turned out to be 74.7 µM. Under setting [2], this molecule returned a 90% effect concentration (IC90) of 99.9 µM. Under setting [3], this molecule displayed an IC90 of 96.4 µM.
The corresponding values for `CC#CC[N+](C)(C)CCCCCCCCCCCC` are 49 µM (inactive), 72.8 µM, over 100 µM and over 100 µM.
With `O=C(Cc1cccc2ccccc12)N/N=C/c1ccc(OC(=O)/C=C/c2ccco2)cc1`, the IC50 is 69 µM (inactive). Besides, the half-maximal inhibitory concentration (IC50) under setting [1] was over 100 µM. The molecule also had an IC90 under setting [2] of over 100 µM. The same molecule gave an IC90 under setting [3] of over 100 µM.
Consider `CC1=NN(c2ccccc2)C(=O)/C1=C/c1c(O)[nH]c(=S)[nH]c1=O`, for which the IC50 was > 100 µM (inactive). In addition, the IC50 under setting [1] was over 100 µM. The IC90 under setting [2] is over 100 µM. In addition, the IC90 under setting [3] is over 100 µM.
With `Cc1c(C(=O)NCCC2=CCCCC2)sc2ncnc(N3CCCCC3C)c12` (stereo unspecified), the IC50 was 47.5 µM (inactive). In addition, under setting [1], the IC50 worked out at 65.7 µM. For the same molecule, the IC90 under setting [2] was over 100 µM. The molecule also returned an IC90 under setting [3] of 52 µM.
The corresponding values for `COC(=O)c1ccccc1NC(=O)CSCC(=O)Nc1ccc(F)cc1` are 39.7 µM (inactive), 94.9 µM, over 100 µM and over 100 µM.
The corresponding values for `COCCNC(=O)COc1ccc(Oc2ccccc2)cc1` are 49.5 µM (inactive), over 100 µM, over 100 µM and over 100 µM.
Turning to `CCC(CC)Nc1ccc(C(CC(N)=O)NC(=O)c2ccccc2)cc1[N+](=O)[O-]` (stereo unspecified), the IC50 is > 100 µM (inactive). Further, the IC50 under setting [1] is over 100 µM. The IC90 under setting [2] was over 100 µM. In addition, the IC90 under setting [3] is over 100 µM.
In the case of `NNC(=O)c1cccc(O)c1`, the IC50 was 9.97 µM. The IC50 under setting [1] was determined as 79.5 µM. The molecule further showed a 90% effect concentration (IC90) under setting [2] of over 100 µM. The IC90 under setting [3] was found to be 73.9 µM.
The corresponding values for `CSc1ncccc1C(=O)Nc1nc2ccc(Oc3ccccc3)cc2s1` are > 100 µM (inactive), over 100 µM, over 100 µM and over 100 µM.
In the same order, the values of `O=C(NC1CCCC1)c1ccccc1OCc1ccccc1` are 5.69 µM, 37.6 µM, over 100 µM and over 100 µM.
Consider `O=C(CSC1CS(=O)(=O)c2cc([N+](=O)[O-])ccc21)NNC(=O)c1ccccc1` (stereo unspecified), for which the IC50 was 11.8 µM. Under setting [1], this molecule displayed an IC50 of 89 µM. The molecule also came in with an IC90 under setting [2] of 94.3 µM. This molecule also returned an IC90 under setting [3] of 13.3 µM.
Turning to `CCOc1cc(N2CCOCC2)c(OCC)cc1NC(=O)c1cc(C)cc(C)c1`, the IC50 was 23.7 µM. The molecule further displayed an IC50 under setting [1] of over 100 µM. The same molecule registered an IC90 under setting [2] of over 100 µM. Under setting [3], this molecule registered an IC90 of over 100 µM.
Take `O=C(O)CCCN1C(=O)/C(=C\c2ccc(-c3nc4ccccc4s3)o2)SC1=S`: the IC50 is 24.3 µM. The IC50 under setting [1] was 60.4 µM. Under setting [2], this molecule yielded an IC90 of over 100 µM. Moreover, the IC90 under setting [3] is over 100 µM.
Take `O=C1C2CCN(CC2)C1Cc1ccc(OCCOc2ccccc2)cc1` (stereo unspecified): the IC50 was > 100 µM (inactive). This molecule gave an IC50 under setting [1] of over 100 µM. Besides, the IC90 under setting [2] is over 100 µM. Also, under setting [3], the IC90 is over 100 µM.
Turning to `COc1ccc2ccccc2c1/C=N/NC(=O)c1cccc(C)c1`, the IC50 is 64.9 µM (inactive). In addition, the concentration for half-maximal inhibition (IC50) under setting [1] was over 100 µM. The IC90 under setting [2] was over 100 µM. This molecule showed an IC90 under setting [3] of over 100 µM.
Turning to `COc1ccc(C(=O)Nc2cccc3c2CCCC3)c(OC)c1`, the IC50 was 23.4 µM. For the same molecule, the IC50 under setting [1] is over 100 µM. The IC90 under setting [2] is over 100 µM. This molecule also returned an IC90 under setting [3] of over 100 µM.
As to `C/C(=N\NC(=O)c1cc2c(s1)CCC(C)C2)c1cccnc1` (stereo unspecified), the IC50 was > 100 µM (inactive). For the same molecule, under setting [1], the half-maximal inhibitory concentration (IC50) was over 100 µM. Also, the IC90 under setting [2] is over 100 µM. Besides, under setting [3], the IC90 was over 100 µM.
`CC(C)NC(=O)C(=O)NNC(=O)C12CC3CC(CC(C3)C1)C2`: the IC50 is 15.6 µM. Under setting [1], this molecule came in with an IC50 of 81.8 µM. The molecule further yielded an IC90 under setting [2] of over 100 µM. This molecule showed an IC90 under setting [3] of over 100 µM.
Turning to `CC(=O)c1sc(N/N=C\c2ccc(N(C)C)cc2)nc1C`, the IC50 is 49.9 µM (inactive). Moreover, the IC50 under setting [1] is over 100 µM. Under setting [2], this molecule had an IC90 of over 100 µM. Besides, under setting [3], the IC90 is over 100 µM.
Regarding `CNc1ccccc1NC(=O)C1CCCN1C(=O)OCc1ccccc1` (stereo unspecified), the IC50 was > 100 µM (inactive). Under setting [1], this molecule yielded an IC50 of over 100 µM. Further, the IC90 under setting [2] is over 100 µM. The IC90 under setting [3] is over 100 µM.
As to `O=C(NCCC1=CCCCC1)c1ccc(Cl)c([N+](=O)[O-])c1`, the IC50 is 25.9 µM (inactive). In addition, the IC50 under setting [1] worked out at 54.3 µM. Moreover, the concentration for an effect of 90% (IC90) under setting [2] was over 100 µM. In addition, the IC90 under setting [3] is 30.2 µM.
As for `CCc1ccc(N2C(=O)c3sc4nnc(-c5ccccc5)c(=O)n4c3C2=O)cc1`, the IC50 is > 100 µM (inactive). In addition, the IC50 under setting [1] is over 100 µM. The IC90 under setting [2] is over 100 µM. The molecule further showed a 90% effect concentration (IC90) under setting [3] of over 100 µM.
For the molecule `C=CCn1cc(C(=O)NCCCOC)c(=O)c2cc(S(=O)(=O)N(CC)CC)ccc21`, the IC50 is 99.9 µM (inactive). The IC50 under setting [1] was over 100 µM. The IC90 under setting [2] was over 100 µM. The molecule further had an IC90 under setting [3] of over 100 µM.
Turning to `Cc1ccc(C(=O)Nc2nc3ccccc3s2)s1`, the IC50 is 43.6 µM (inactive). The molecule also gave an IC50 under setting [1] of over 100 µM. In addition, the IC90 under setting [2] is over 100 µM. The molecule also registered an IC90 under setting [3] of over 100 µM.
With `O=C1/C(=C/C=C/c2ccco2)SC(=S)N1c1ccc(O)cc1`, the IC50 is > 100 µM (inactive). The same molecule had an IC50 under setting [1] of over 100 µM. The IC90 under setting [2] was over 100 µM. Also, the IC90 under setting [3] was over 100 µM.
Consider `O=C(Cn1ncc2c3ccccc3n(Cc3ccccc3F)c2c1=O)NCCCN1CCCC1=O`, for which the IC50 is > 100 µM (inactive). For the same molecule, the IC50 under setting [1] was over 100 µM. The same molecule returned an IC90 under setting [2] of over 100 µM. Moreover, the IC90 under setting [3] was over 100 µM.
With `Nc1nc(Sc2ncccc2[N+](=O)[O-])n[nH]1`, the IC50 was 21.6 µM (inactive). In addition, under setting [1], the IC50 is 37.4 µM. Under setting [2], the IC90 is over 50 µM. Besides, the IC90 under setting [3] was 77.1 µM.
